Common to all, as to assay type: in vivo
Test [1] has as its system key weeds such as Digitaria sanguinalis, Leptochloa chinensis. In words: Comparison experiment (post-emergence, Tables 4-7), herbicidal activity on weeds not listed separately. The source says: The above growth control rates are fresh weight control rates.
Experiment on weeding effect in post-emergence stage: monocotyledonous and dicotyledonous weed seeds (Descurainia sophia, Capsella bursa-pastoris, Galium aparine, Stellaria media, Lithospermum arvense, Rorippa indica, Alopecurus aequalis, Beckmannia syzigachne, Sclerochloa dura, Phleum paniculatum, Bromus japonicus, Aegilops tauschii, Phalaris arundinacea, Amaranthus retroflexus, Chenopodiaceae, Commelina communis, Sonchus arvensis, convolvulus arvensis, Cirsium setosum, Solanum nigrum, Acalypha australis, Digitaria sanguinalis, Echinochloa crusgalli, Setaria viridis, Setaria glauca, Leptochloa chinensis, Monochoria vaginalis, Sagittaria trifolia, Scirpus juncoides, Cyperus rotundus, Cyperus iria, Cyperus difformis, Fimbristylis, Portulaca oleracea, Xanthium sibiricum, Pharbitis nil) and major crop seeds (wheat, corn, rice, soybean, cotton, oilseed rape, millet, sorghum, potato, sesame, ricinus) were placed in plastic pots filled with soil, then covered with 0.5-2 cm of soil, allowed to grow in a good greenhouse environment. After 2 weeks of sowing, the test plants were treated in the 2 leaf stage. The tested compounds of the present invention were respectively dissolved in acetone, then added with Tween 80 and 1.5 liter/ha of emulsifiable concentrate of methyl oleate as synergist, diluted with a certain amount of water to obtain a solution with a certain concentration, and sprayed with a spray tower onto the plants. After the application, the plants were cultured for 15 days in the greenhouse, and then the experimental results of the weeding were counted. The doses of the used compounds were 500, 250, 125, 60, 30, 15 g/ha, and the averages were obtained by repeating for three times.
If there is no clear marker, the post-seedling test conditions are the same as above, and the experimental results are shown in Tables 4-7.

The subject of a further test is Abutilon theophrasti. In words: Weeding effect in post-emergence stage. The note with it: 250 g/ha; 2 leaf stage; 15 days after application; fresh weight control rate. The procedure, abridged: (§1)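 Pot-grown weeds sprayed post-emergence at the 2-leaf stage, 2 weeks after sowing, with compound in acetone/Tween 80 plus 1.5 L/ha methyl oleate concentrate at 500–15 g/ha. Fresh-weight growth control scored after 15 days in greenhouse, mean of three replicates, graded levels 0–5 (5: >85%, 0: <5%).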

For a further test, the system named is Amaranthus retroflexus. In words: Weeding effect in post-emergence stage. The following applies: 250 g/ha; 2 leaf stage; 15 days after application; fresh weight control rate. Summed up:
as §1

Another test concerns Setaria viridis. In words: Weeding effect in post-emergence stage. The note with it: 250 g/ha; 2 leaf stage; 15 days after application; fresh weight control rate. The procedure, abridged: as §1
Another test deals with Echinochloa crusgali. Kind of test: Weeding effect in post-emergence stage. The following applies: 250 g/ha; 2 leaf stage; 15 days after application; fresh weight control rate. The procedure, abridged: as §1
For the next test, the system named is Digitaria sanguinalis. Kind of test: Weeding effect in post-emergence stage. The note with it: 250 g/ha; 2 leaf stage; 15 days after application; fresh weight control rate. Summed up:
as §1

Setting [2] is: doses of 125, 60, 30, 15 g/ha, X replaced by other five membered rings.

In the case of `COc1c(C(=O)Nc2nnc(C)o2)ccc(C(F)(F)F)c1[S@+]([O-])CC1CC1` [Compound 310], the “herbicidal activity and/or crop safety compared with the corresponding racemate or S configuration” value in test [1] (no dose stated) is “better herbicidal activity and/or crop safety”. Further, the “weeding effect in post-emergence stage, activity level (growth control rate), Abutilon theophrasti” value (shortened to “weeding effect … Abutilon theophrasti”) in the test on Abutilon theophrasti is given as 5 (Level 5: growth control rate is above 85%). Moreover, the “weeding effect in post-emergence stage, activity level (growth control rate), Amaranthus retroflexus” value (“weeding effect … Amaranthus retroflexus” for short) in the test on Amaranthus retroflexus was 5 (Level 5: growth control rate is above 85%). Moreover, the “weeding effect in post-emergence stage, activity level (growth control rate), Setaria viridis” value (from here on “weeding effect … Setaria viridis”) in the test with Setaria viridis is given as 5 (Level 5: growth control rate is above 85%). Moreover, the “weeding effect in post-emergence stage, activity level (growth control rate), Echinochloa crusgali” value (shortened to “weeding effect … Echinochloa crusgali”) in the test on Echinochloa crusgali is listed as 5 (Level 5: growth control rate is above 85%). Moreover, the “weeding effect in post-emergence stage, activity level (growth control rate), Digitaria sanguinalis” value (“weeding effect … Digitaria sanguinalis” for short) in the test on Digitaria sanguinalis is reported as 5 (Level 5: growth control rate is above 85%).
Regarding `COc1c(C(=O)Nc2nnc(C)o2)ccc(C(F)(F)F)c1[S@+]([O-])CC(C)F` (stereo partly drawn) [Compound 321], the “herbicidal activity and/or crop safety compared with the corresponding racemate or S configuration” value in test [1] (no dose stated) is “better herbicidal activity and/or crop safety”. Further, in the test with Abutilon theophrasti, the “weeding effect … Abutilon theophrasti” value is given as 5 (Level 5: growth control rate is above 85%). Moreover, the “weeding effect … Amaranthus retroflexus” value with Amaranthus retroflexus is recorded as 5 (Level 5: growth control rate is above 85%). The “weeding effect … Setaria viridis” value in the test with Setaria viridis is 5 (Level 5: growth control rate is above 85%). Also, in the test on Echinochloa crusgali, the “weeding effect … Echinochloa crusgali” value is 5 (Level 5: growth control rate is above 85%). Besides, in the test with Digitaria sanguinalis, the “weeding effect … Digitaria sanguinalis” value is 5 (Level 5: growth control rate is above 85%).
Consider `C=CC[S@@+]([O-])c1c(C(F)(F)F)ccc(C(=O)Nc2nnc(C)o2)c1OC` [Compound 311], for which the “herbicidal activity and/or crop safety compared with the corresponding racemate or S configuration” value in test [1] (no dose stated) is “better herbicidal activity and/or crop safety”. Also, the “weeding effect … Abutilon theophrasti” value in the test on Abutilon theophrasti is given as 5 (Level 5: growth control rate is above 85%). In the test with Amaranthus retroflexus, the “weeding effect … Amaranthus retroflexus” value was 5 (Level 5: growth control rate is above 85%). For the same molecule, in the test with Setaria viridis, the “weeding effect … Setaria viridis” value is on record as 5 (Level 5: growth control rate is above 85%). The “weeding effect … Echinochloa crusgali” value in the test with Echinochloa crusgali is given as 5 (Level 5: growth control rate is above 85%). In addition, in the test on Digitaria sanguinalis, the “weeding effect … Digitaria sanguinalis” value is 5 (Level 5: growth control rate is above 85%).
Take `CCC[S@@+]([O-])c1c(C(F)F)ccc(C(=O)Nc2nnnn2C)c1F` [Compound 856]: the “herbicidal activity and/or crop safety compared with the corresponding racemate or S configuration” value in test [1] (setting [2]) is reported as “better herbicidal activity and/or crop safety”. Moreover, the “weeding effect … Abutilon theophrasti” value in the test with Abutilon theophrasti is 5 (Level 5: growth control rate is above 85%). For the same molecule, in the test with Amaranthus retroflexus, the “weeding effect … Amaranthus retroflexus” value was 5 (Level 5: growth control rate is above 85%). The “weeding effect … Setaria viridis” value in the test with Setaria viridis is recorded as 5 (Level 5: growth control rate is above 85%). In the test with Echinochloa crusgali, the “weeding effect … Echinochloa crusgali” value is 5 (Level 5: growth control rate is above 85%). For the same molecule, in the test with Digitaria sanguinalis, the “weeding effect … Digitaria sanguinalis” value is recorded as 5 (Level 5: growth control rate is above 85%).
With `CSc1c(C(=O)Nc2nnc(C)o2)ccc(C(F)(F)F)c1[S@+]([O-])CCCF` [Compound 559], the “herbicidal activity and/or crop safety compared with the corresponding racemate or S configuration” value in test [1] (dose of 120, 48, 30, 24 g/ha) was “better herbicidal activity and/or crop safety”. Besides, the “weeding effect … Abutilon theophrasti” value in the test with Abutilon theophrasti is recorded as 5 (Level 5: growth control rate is above 85%). The “weeding effect … Amaranthus retroflexus” value with Amaranthus retroflexus was 5 (Level 5: growth control rate is above 85%). Also, in the test on Setaria viridis, the “weeding effect … Setaria viridis” value is given as 5 (Level 5: growth control rate is above 85%). In addition, the “weeding effect … Echinochloa crusgali” value in the test on Echinochloa crusgali is given as 5 (Level 5: growth control rate is above 85%). Moreover, in the test with Digitaria sanguinalis, the “weeding effect … Digitaria sanguinalis” value is 5 (Level 5: growth control rate is above 85%).
With `CC[S@@+]([O-])c1c(C(F)(F)F)ccc(C(=O)Nc2nnc(C)o2)c1OC` [Compound 306], the “herbicidal activity and/or crop safety compared with the corresponding racemate or S configuration” value in test [1] (no dose stated) is given as “better herbicidal activity and/or crop safety”. For the same molecule, the “weeding effect … Abutilon theophrasti” value with Abutilon theophrasti is listed as 5 (Level 5: growth control rate is above 85%). For the same molecule, the “weeding effect … Amaranthus retroflexus” value in the test on Amaranthus retroflexus is listed as 5 (Level 5: growth control rate is above 85%). The “weeding effect … Setaria viridis” value in the test on Setaria viridis is given as 5 (Level 5: growth control rate is above 85%). Besides, the “weeding effect … Echinochloa crusgali” value in the test on Echinochloa crusgali is 5 (Level 5: growth control rate is above 85%). The “weeding effect … Digitaria sanguinalis” value in the test with Digitaria sanguinalis was 5 (Level 5: growth control rate is above 85%).
In the case of `CC(C)C[S@@+]([O-])c1c(C(F)(F)F)ccc(C(=O)Nc2nnnn2C)c1F` [Compound 380], the “herbicidal activity and/or crop safety compared with the corresponding racemate or S configuration” value in test [1] (setting [2]) was “better herbicidal activity and/or crop safety”. For the same molecule, the “weeding effect … Abutilon theophrasti” value in the test on Abutilon theophrasti was 5 (Level 5: growth control rate is above 85%). In the test with Amaranthus retroflexus, the “weeding effect … Amaranthus retroflexus” value is 5 (Level 5: growth control rate is above 85%). In addition, the “weeding effect … Setaria viridis” value in the test on Setaria viridis is reported as 5 (Level 5: growth control rate is above 85%). Further, the “weeding effect … Echinochloa crusgali” value in the test on Echinochloa crusgali is 5 (Level 5: growth control rate is above 85%). Also, in the test on Digitaria sanguinalis, the “weeding effect … Digitaria sanguinalis” value is 5 (Level 5: growth control rate is above 85%).
As to `CCC[S@@+]([O-])c1c(C(F)F)ccc(C(=O)Nc2nnc(C)o2)c1SC` [Compound 865], the “herbicidal activity and/or crop safety compared with the corresponding racemate or S configuration” value in test [1] (dose of 120, 48, 30, 24 g/ha) is on record as “better herbicidal activity and/or crop safety”. The “weeding effect … Abutilon theophrasti” value with Abutilon theophrasti was 5 (Level 5: growth control rate is above 85%). Further, in the test on Amaranthus retroflexus, the “weeding effect … Amaranthus retroflexus” value is recorded as 5 (Level 5: growth control rate is above 85%). The “weeding effect … Setaria viridis” value in the test with Setaria viridis is listed as 5 (Level 5: growth control rate is above 85%). Moreover, the “weeding effect … Echinochloa crusgali” value in the test with Echinochloa crusgali was 5 (Level 5: growth control rate is above 85%). Moreover, the “weeding effect … Digitaria sanguinalis” value with Digitaria sanguinalis is recorded as 5 (Level 5: growth control rate is above 85%).
Turning to `C=CC[S@@+]([O-])c1c(C(F)(F)F)ccc(C(=O)Nc2nnc(C)o2)c1SC` [Compound 552], the “herbicidal activity and/or crop safety compared with the corresponding racemate or S configuration” value in test [1] (dose of 120, 48, 30, 24 g/ha) is given as “better herbicidal activity and/or crop safety”. For the same molecule, in the test on Abutilon theophrasti, the “weeding effect … Abutilon theophrasti” value is 5 (Level 5: growth control rate is above 85%). Moreover, in the test with Amaranthus retroflexus, the “weeding effect … Amaranthus retroflexus” value was 5 (Level 5: growth control rate is above 85%). Also, in the test on Setaria viridis, the “weeding effect … Setaria viridis” value was 5 (Level 5: growth control rate is above 85%). Besides, the “weeding effect … Echinochloa crusgali” value in the test on Echinochloa crusgali is given as 5 (Level 5: growth control rate is above 85%). Also, the “weeding effect … Digitaria sanguinalis” value in the test on Digitaria sanguinalis was 5 (Level 5: growth control rate is above 85%).

For the origin of these results see US12643871B2, “Aryl formamide compound containing chiral sulfur oxide or salt thereof, preparation method, herbicidal composition and use thereof” (Qingdao Kingagroot Chemical Compound Co., Ltd., priority 2019, dated 2026).
